Earlier results as cited in patent US8808752B2, “Controlled release particles and method for producing the same” (priority 2009, dated 2014).

Row | SMILES | water solubility (in words) | water solubility
1 | C=C(C)C(=O)OCCOC(=O)C(=C)C [Ethylene glycol dimethacrylate] | water-insoluble | 
2 | CSc1nc(NC2CC2)nc(NC(C)(C)C)n1 [MBACT, 2-methylthio-4-t-butylamino-6-cyclopropylamino-s-triazine, reference compound] |  | 7 ppm
3 | C=C(C)C(=O)O [Methacrylic acid] |  | 8.9 wt %
4 | CCCC1COC(Cn2cncn2)(c2ccc(Cl)cc2Cl)O1 (centres unmarked) [Propiconazole, 1-[2-(2,4-dichlorophenyl)-4-n-propyl-1,3-dioxolane-2-ylmethyl]-1H-1,2,4-triazole, reference compound] |  | 110 ppm
5 | C=C(C)C(=O)OCCCC [n-Butyl methacrylate] |  | 0.08 wt %
